Measured values taken from ChEMBL document CHEMBL5034025 (Eur J Med Chem, 2021).

Target: Glutaminyl-peptide cyclotransferase (Homo sapiens, UniProt Q16769)
Assay: Inhibition of human recombinant glutaminyl cyclase using H-Gln-AMC hydrobromide as substrate measured after 15 mins by fluorimetry

Chain of Glutaminyl-peptide cyclotransferase (Q16769 whole entry): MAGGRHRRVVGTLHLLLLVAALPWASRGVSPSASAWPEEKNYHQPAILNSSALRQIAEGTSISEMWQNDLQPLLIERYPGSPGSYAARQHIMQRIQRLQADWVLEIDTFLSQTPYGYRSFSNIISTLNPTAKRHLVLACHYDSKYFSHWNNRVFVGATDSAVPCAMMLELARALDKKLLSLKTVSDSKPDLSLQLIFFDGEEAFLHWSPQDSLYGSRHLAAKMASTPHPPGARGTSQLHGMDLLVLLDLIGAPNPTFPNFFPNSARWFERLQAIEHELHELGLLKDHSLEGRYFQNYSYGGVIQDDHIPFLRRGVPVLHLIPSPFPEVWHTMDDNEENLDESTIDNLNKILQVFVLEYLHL

COc1ccc(N(C(=S)NCCCn2cncc2C)C2CCN(C)CC2)cc1OC
IC50: 6.1 nM
